Paper PMC5578999, “Novel quinolone chalcones targeting colchicine-binding pocket kill multidrug-resistant cancer cells by inhibiting tubulin activity and MRP1 function” (Scientific Reports, 2017)

Experiments:
[1] = test system: KB-C-2; assay: SRB cell viability, MDR1-overexpressing cells; type: cell-based; settings: Homo sapiens, KB-C2; KB-C-2 MDR1-overexpressing cells
Method: (§1) human epidermoid carcinoma cell line and KB-C2, an isogenic MDR1- overexpressing drug-resistant cell line, were kindl y provided b y Dr. Amit K Tiwari, the Universit y of Toledo, OH. […]
(§2) Cell line authentication was carried out by Genetica DNA
(§3) Cell viability, com binational i ndex and cell synchronization
(§4) Cell viability and proliferation were ex amined using a s ulforhodamine B (SRB) assa y as […]
(§5) IC 50 values were calculat ed from si gmoidal dose-response cu rves gen erat ed b y at least two indepen dent ex periments , with each quadruplicate samples, using GraphPad Prism v.5.04 software (GraphPad Software, Inc, La J olla, CA). […]
(§6) (sham) or presence of compound(s). […]

[2] = test system: KB-C-1; assay: SRB cell viability, parental cells; type: cell-based; settings: Homo sapiens, KBC-1; parental KB-C-1
Method: as §1, §2, §3, §4, §5, §6

[3] = test system: SW-1271; assay: SRB cell viability; type: cell-based; settings: SW1271
Method: as §2, §3, §4, §5, §6

[4] = test system: H69AR; assay: SRB cell viability, multidrug-resistant cells; type: cell-based; settings: for IC50: Homo sapiens, H69AR
Method: as §2, §3, §4, §5, §6

[5] = target: T1, purified porcine tubulin (Sus scrofa, UniProt P02554); assay: Intrinsic tryptophan fluorescence quenching of tubulin; type: binding
T1 construct: purified porcine tubulin (T240, Cytoskeleton); purchased Cytoskeleton T240
Method: A two-step extraction procedure was used to differentially extract tubulin heterodimers and microtubules from sham-treated cells or those treated with compounds as described previously. To determine the binding ability of CTR compounds to tubulin, the changes in the intrinsic tryptophan fluorescence of purified porcine tubulin (T240, Cytoskeleton) was measured as described previously. GraphPad Prism software was used to determine the dissociation constant of CTRs bound to tubulin, and the following formula was used: ∆F=∆Fmax×C/Kd+C Where, ΔF is the changes in the fluorescence intensity of the tubulin when bound by CTR; ΔFmax is the maximum change in the fluorescence intensity; C is compound concentration; and Kd is the dissociation constant of the compound. The experiment was repeated five times.

[6] = test system: MDA-MB-231 triple-negative metastatic breast cancer cells; assay: Antitumor activity in engrafted athymic mice; type: in vivo, ATH490 athymic mice; settings: for tumor volume Day 0 / tumor volume Day 6: Tax 10 mg/kg i.v. once/week, CTR 30 mg/kg i.p. every 3-4 days, combinations Tax 5 + CTR 15 mg/kg once/week; for tumor volume Day 6: sham 105.03; for tumor volume Day 14 / tumor volume Day 17 / tumor volume Day 20 / tumor volume Day 24 / tumor volume Day 27 / tumor volume Day 30: same doses; for tumor volume Day 14: sham 136.66; for tumor volume Day 17: sham 162.62; for tumor volume Day 20: sham 192.69; for tumor volume Day 24: sham 268.08; for tumor volume Day 27: sham 426.87; for tumor volume Day 30: sham 557.66
Method: The animals were then immediately euthanized by carbon dioxide. […]
Supplementary Table S2. A typical treatment protocol of engrafted mice with CTR alone or in
combination with paclitaxel.
Treatment Dos a ge Frequ enc y Route Notes
Sham control Highest volume E v e r y 3-4 d a ys Intraperitoneal (I.P.) Vehicle onl y
Taxa 10 mg/kgb Once/week Intravenous ( I.V.)
CTR-17 (30) 30 mg/kg E v e r y 3-4 d a ys I. P .
CTR-20 (30) 30 mg/kg E v e r y 3-4 d a ys I. P .
Supplementary Table S 3: Antitumor activity of CTR -17 and CTR -20, alone or in combination
a Tax: paclitaxel. b mg per kg of bod y wei ght. c unit is mm 3. […]

[7] = target: T1, purified porcine tubulin; assay: In vitro microtubule assembly (light scattering) assay; type: biochemical; settings: 3 µmol/L CTR-17, 1 µmol/L CTR-20; 340 nm, one hour, 37 °C
Method: Figure 5 CTRs inhibited microtubule polymerization by binding to tubulin through the colchicine-binding pocket. (a) CTRs inhibited microtubule polymerization in a similar manner to that of nocodazole. Purified porcine tubulin and 1.0 mmol/L GTP were added to reaction mixture (37 °C) containing 10 µmol/L paclitaxel (Tax), 3 µmol/L CTR-17, 1 µmol/L CTR-20, or 5 µmol/L nocodazole (Noco). Polymerization of microtubule was monitored every minute for one hour at 340 nm by spectrophotometry. Note that G-PEM buffer contains 400 µg of purified tubulin. (b) CTR-20 (and CTR-17; Supplementary Fig. S12) bound tubulin. CTR-20 quenched the intrinsic tryptophan fluorescence of tubulin in a dose-dependent manner. The changes in fluorescence intensity (∆F) were plotted against drug concentrations to determine the dissociation constant. […] CTR-20 (and CTR-17; Supplementary Fig. S12) depressed the fluorescence of the colchicine-tubulin complex in a dose-dependent manner. The fluorescence intensity of the final tubulin complex was used to determine the inhibitory concentration (Ki) using a modified Dixon plot. The fluorescence intensity was normalized by subtracting any intrinsic fluorescence of CTR-20 at given doses from that of the complex. “F” is the fluorescence of the CTR-colchicine-tubulin complex, and “F0” is the fluorescence of the colchicine-tubulin complex. […]

[8] = test system: KB-C-2; assay: SRB cell viability, MDR1-overexpressing cells; type: cell-based, human; settings: KB-C-2 vs KB-C-1; Table S1
[9] = Serum ALT and AST, CD1 mice; settings: paclitaxel 10 mg/kg, CTR 30 mg/kg, combinations paclitaxel 5 + CTR 15 mg/kg, vehicle 38.76 ± 0.17, in U/L (unit assumed)
Source text: Alanine transaminase (ALT, SUP6001-c) and Aspartate transaminase (AST, SUP6002-c) color endpoint assay kits were purchased from ID Labs (London, Ontario, Canada).
Blood samples were collected via cardiac puncture and processed for ALT and AST measurements. The animals were then immediately euthanized by carbon dioxide.

[10] = Serum ALT and AST, ATH490 mice; settings: 30 days, paclitaxel 10 mg/kg, CTR 30 mg/kg, combinations 5 + 15 mg/kg; for ALT: sham 64.03± 4.04; for AST: sham 112.46 ± 4.74
Method: For paclitaxel treatments, 40 mg/ml stock solution of paclitaxel (Sigma, MO) was prepared in DMSO. […] Alanine transaminase (ALT, SUP6001-c) and Aspartate transaminase (AST, SUP6002-c) color endpoint assay kits were purchased from ID Labs (London, Ontario, Canada).
Athymic mice engrafted with tumor cells were used to determine antitumor activity. […] When tumor size reached 5–6 mm in diameter (n = 4–5 per group), mice were randomly assigned into several groups and vehicle-treated or treated with drug(s). […] Animals were monitored for food and water consumption every day, and their body weights and tumor volumes were measured twice per week. Tumor volumes were measured with a digital caliper and were determined by the following formula: ½ length × width^2. Blood samples were collected via cardiac puncture and processed for ALT and AST measurements. The animals were then immediately euthanized by carbon dioxide.
carri ed out using GraphP ad Prism software. All values are pr esented as mean±S.E.M.
Comparison between each group was made b y p values determined using one-wa y ANOVA. The
p value of <0.05 is consi dered to be statisticall y significant. Each organ weight was norm alized
with total body mass (BM) as expressed in %.
ATH490 athymic mice were vehicle -treated (Sham) or treated with indicated compounds
and doses for 30 da ys , followed by harvesting liver ( and other o r gans ; Fi g. 7d) for an al ysis of
their toxic effects . […] ( b) Blood sera w erecollected from mice
treated with indicated compounds and doses, and then examinedthe levels of ALT and AST to
gain insight into liver toxicity.
All values ar e present ed as mean±S.E .M.

[11] = Body and organ weights, side effects; settings: CTR-17 30 mg/kg, CTR-20 30 mg/kg, paclitaxel 10 mg/kg; CD-1 or ATH490 strains
Method: Athymic mice engrafted with tumor cells were used to determine antitumor activity. […] When tumor size reached 5–6 mm in diameter (n = 4–5 per group), mice were randomly assigned into several groups and vehicle-treated or treated with drug(s). […] Animals were monitored for food and water consumption every day, and their body weights and tumor volumes were measured twice per week. Tumor volumes were measured with a digital caliper and were determined by the following formula: ½ length × width^2. Blood samples were collected via cardiac puncture and processed for ALT and AST measurements. The animals were then immediately euthanized by carbon dioxide. Tumors and vital organs (spleen, kidney, liver and lung) were harvested and fixed in 10% buffered formalin at 4 °C overnight before being processed for a paraffin embedding. The paraffin-embedded blocks were then sectioned to 4–5 µm thick. Each section was stained with haematoxylin and eosin (H&E).

T1 sequence (P02554 whole entry): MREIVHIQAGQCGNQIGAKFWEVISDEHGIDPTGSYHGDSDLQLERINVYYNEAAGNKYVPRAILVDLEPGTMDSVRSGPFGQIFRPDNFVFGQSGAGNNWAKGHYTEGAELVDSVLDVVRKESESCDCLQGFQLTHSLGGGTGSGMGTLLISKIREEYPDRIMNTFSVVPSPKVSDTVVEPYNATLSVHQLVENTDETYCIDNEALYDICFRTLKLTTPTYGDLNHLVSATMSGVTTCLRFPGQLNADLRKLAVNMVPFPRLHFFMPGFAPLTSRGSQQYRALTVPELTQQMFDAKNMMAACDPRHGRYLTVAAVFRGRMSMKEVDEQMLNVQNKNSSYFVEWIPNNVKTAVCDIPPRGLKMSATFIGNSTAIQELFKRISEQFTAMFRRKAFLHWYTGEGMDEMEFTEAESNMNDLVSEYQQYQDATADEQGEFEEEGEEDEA
T1 sequence (P02550 whole entry partner): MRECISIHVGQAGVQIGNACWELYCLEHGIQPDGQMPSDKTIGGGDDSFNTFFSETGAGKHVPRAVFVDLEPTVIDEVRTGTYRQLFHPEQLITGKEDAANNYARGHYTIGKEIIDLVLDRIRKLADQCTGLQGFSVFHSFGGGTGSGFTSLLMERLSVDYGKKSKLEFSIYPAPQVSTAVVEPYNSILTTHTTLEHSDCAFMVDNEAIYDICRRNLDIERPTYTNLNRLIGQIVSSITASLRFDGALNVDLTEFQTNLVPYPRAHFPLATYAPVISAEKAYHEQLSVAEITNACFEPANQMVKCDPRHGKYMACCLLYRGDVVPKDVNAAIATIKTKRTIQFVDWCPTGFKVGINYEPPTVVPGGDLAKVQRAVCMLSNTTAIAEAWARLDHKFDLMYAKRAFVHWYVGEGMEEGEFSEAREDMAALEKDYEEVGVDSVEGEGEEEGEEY

Row | Structure (SMILES) | IC50 [1] [nM] | IC50 [2] [nM] | IC50 [3] [nM] | IC50 [4] [nM] | Kd [5] [nM] | tumor volume Day 0 [6] [mm3] | tumor volume Day 6 [6] [mm3] | tumor volume Day 14 [6] [mm3] | tumor volume Day 17 [6] [mm3] | tumor volume Day 20 [6] [mm3] | tumor volume Day 24 [6] [mm3] | tumor volume Day 27 [6] [mm3] | tumor volume Day 30 [6] [mm3] | effect on microtubule polymerization [7] | Resistance (fold) [8] [fold] | levels of ALT and AST [9] | ALT [10] [IU/L] | AST [10] [IU/L] | side effects (changes in body and organ weights) [11] | Resistance (fold) ([4]; H69AR vs SW-1271, Table S1)
1 | COc1ccc2[nH]c(=O)c(/C=C/C(=O)c3ccccc3OC)cc2c1 [CTR-20, (E)-6-Methoxy-3-(3-(2-methoxyphenyl)-3-oxoprop-1-enyl) quinolin-2(1H)-one] | 250 ± 30 | 100 ± 10 | 1950 ± 10 | 130 ± 10 | 5090 ± 490 | 92.51 | 69.89 | 84.64 | 97.11 | 97.22 | 106.26 | 124.88 | 140.63 | inhibit microtubule polymerization | 2.50 | 30.43 ± 0.49 | 50.50± 9.96 | 118.22±17.00 | did not cause any notable side effects | 
2 | COc1ccccc1C(=O)/C=C/c1cc2ccccc2[nH]c1=O [CTR-17, (E)-3-(3-(2-Methoxyphenyl)-3-oxoprop-1-enyl)quinolin-2(1H)-one] | 650 ± 160 | 380 ± 70 | 1140 ± 40 | 520 ± 100 | 4580 ± 950 | 86.71 | 63.99 | 90.07 | 128.36 | 134.76 | 160.86 | 189.45 | 209.84 | inhibit microtubule polymerization | 1.71 | 37.02 ± 1.46 | 64.67± 5.26 | 114.13 ± 6.36 | did not cause any notable side effects | 0.45
